Data taken from patent US8110605B2, “Compound for inactivating viruses and bacteria and method of making same” (priority 2009, dated 2012).
Where two headings read alike, the source gives them in different places.

Key:
[1] = test system: Influenza virus H1N1 subtype (A/WSN/33); type: cell-based
[2] = test system: H5N1 avian influenza virus (TW1209/03(H5N1)AIV); type: cell-based
[3] = test system: H5N1 avian influenza virus (TW1209/03(H5N1)AIV); type: cell-based; remark: listed apart in the source
[4] = test system: H5N2 avian influenza virus (TW1209/04(H5N2)AIV); type: cell-based
[5] = test system: H5N2 avian influenza virus (TW1209/04(H5N2)AIV); type: cell-based; remark: listed apart in the source
[6] = test system: avian influenza virus (AIV) subtype H5N2 (TW1209/04(H5N2)AIV) virions
[7] = test system: Enterovirus type 71 (EV-71) virions; assay: AFM of Enterovirus type 71 virions treated with the compound; settings: for maximum height of virus particles (AFM cursor profile): 5-10 minutes, native virion 75.23 nm; for calculated RMS height of treated particles: over 60 virus particles
[8] = test system: Staphylococcus aureus strain (ATCC-25923); assay: Proliferation suppression of Staphylococcus aureus, MIC by broth dilution; type: cell-based; design: key to MIC of S. aureus: +: Proliferation of S. aureus,; −: Antibacterial effect of S. aureus; settings: 10^4 CFU/mL
[9] = test system: MDCK cells
[10] = test system: MDCX cells
[11] = test system: MDCK cells; remark: listed apart in the source
[12] = test system: MDCK cells; remark: listed apart in the source

O=C(O)C(CCCCCCCCCCS)C(=O)O [2-(10-mercaptodecyl)-propanedioic acid]
concentration protecting cells against infection by influenza virus H1N1 subtype (as low as) [1]: 30 ppm | CPE, H1N1 influenza virus treated with compound ([1]; 3 ppm): + | CPE, H1N1 influenza virus treated with compound ([1]; 30 ppm): − | CPE, H1N1 influenza virus treated with compound ([1]; 100 ppm): − | CPE, H1N1 influenza virus treated with compound ([1]; 300 ppm): − | CPE, H1N1 influenza virus treated with compound ([1]; 1,000 ppm): CTX | CPE, H1N1 influenza virus treated with compound ([1]; 3,000 ppm): CTX | concentration protecting cells against H5N1 influenza virus infection [2]: above 1,000 ppm | CPE, H5N1 avian influenza virus treated with compound ([2]; 3 ppm): + | CPE, H5N1 avian influenza virus treated with compound ([2]; 10 ppm): + | CPE, H5N1 avian influenza virus treated with compound ([2]; 30 ppm): + | CPE, H5N1 avian influenza virus treated with compound ([2]; 100 ppm): − | CPE, H5N1 avian influenza virus treated with compound ([2]; 300 ppm): − | CPE, H5N1 avian influenza virus treated with compound ([2]; 1,000 ppm): CTX | CPE, H5N1 avian influenza virus treated with compound ([2]; 3,000 ppm): CTX | concentration protecting RBC cells to sustain no agglutination (HA testing, H5N1) [3]: above 1,000 ppm | HA, H5N1 avian influenza virus treated with compound ([3]; 3 ppm): + | HA, H5N1 avian influenza virus treated with compound ([3]; 10 ppm): + | HA, H5N1 avian influenza virus treated with compound ([3]; 30 ppm): + | HA, H5N1 avian influenza virus treated with compound ([3]; 100 ppm): − | HA, H5N1 avian influenza virus treated with compound ([3]; 300 ppm): − | HA, H5N1 avian influenza virus treated with compound ([3]; 1,000 ppm): CTX | HA, H5N1 avian influenza virus treated with compound ([3]; 3,000 ppm): CTX | concentration protecting cells against H5N2 influenza virus infection [4]: above 1,000 ppm | CPE, H5N2 avian influenza virus treated with compound ([4]; 3 ppm): + | CPE, H5N2 avian influenza virus treated with compound ([4]; 10 ppm): + | CPE, H5N2 avian influenza virus treated with compound ([4]; 30 ppm): + | CPE, H5N2 avian influenza virus treated with compound ([4]; 100 ppm): − | CPE, H5N2 avian influenza virus treated with compound ([4]; 300 ppm): − | CPE, H5N2 avian influenza virus treated with compound ([4]; 1,000 ppm): CTX | CPE, H5N2 avian influenza virus treated with compound ([4]; 3,000 ppm): CTX | concentration protecting RBC cells to sustain no agglutination (HA testing, H5N2) [5]: above 1,000 ppm | HA, H5N2 avian influenza virus treated with compound ([5]; 3 ppm): + | HA, H5N2 avian influenza virus treated with compound ([5]; 10 ppm): + | HA, H5N2 avian influenza virus treated with compound ([5]; 30 ppm): + | HA, H5N2 avian influenza virus treated with compound ([5]; 100 ppm): − | HA, H5N2 avian influenza virus treated with compound ([5]; 300 ppm): − | HA, H5N2 avian influenza virus treated with compound ([5]; 1,000 ppm): CTX | HA, H5N2 avian influenza virus treated with compound ([5]; 3,000 ppm): CTX | viral morphology by AFM [6]: broken down and flattened | calculated RMS height of treated particles ([6]; 100 ppm): 14.29±0.87 nm | calculated RMS height of treated particles ([6]; 1,000 ppm): 5.62±0.53 nm | viral morphology by AFM ([7]; 30 and 1,000 ppm, FIGS. 5B and 5C): broken down and flattened | maximum height of virus particles (AFM cursor profile) ([7]; 30 ppm, FIG. 5B′): ~10.35 nm | calculated RMS height of treated particles ([7]; 30 ppm): 10.49±0.52 nm | maximum height of virus particles (AFM cursor profile) ([7]; 1,000 ppm, FIG. 5C′): ~8.41 nm | calculated RMS height of treated particles ([7]; 1,000 ppm): 8.35±0.63 nm | MIC ([8]; Staphylococcus aureus, ATCC25923, broth dilution method, read-out: final concentration suppressing proliferation of S. aureus (MIC)): 20 µg/mL | MIC of S. aureus ([8]; final concentration 5 ppm): + | MIC of S. aureus ([8]; final concentration 10 ppm): + | MIC of S. aureus ([8]; final concentration 20 ppm): − | MIC of S. aureus ([8]; final concentration 50 ppm): − | MIC of S. aureus ([8]; final concentration 100 ppm): − | MIC of S. aureus ([8]; final concentration 200 ppm): − | CPE, compound only ([9]; 3 ppm): − | CPE, compound only ([9]; 10 ppm): − | CPE, compound only ([9]; 30 ppm): − | CPE, compound only ([9]; 100 ppm): − | CPE, compound only ([9]; 300 ppm): − | CPE, compound only ([9]; 1,000 ppm): CTX | CPE, compound only ([9]; 3,000 ppm): CTX | CPE, compound only ([10]; 3 ppm): − | CPE, compound only ([10]; 10 ppm): − | CPE, compound only ([10]; 30 ppm): − | CPE, compound only ([10]; 100 ppm): − | CPE, compound only ([10]; 300 ppm): − | CPE, compound only ([10]; 1,000 ppm): CTX | CPE, compound only ([10]; 3,000 ppm): CTX | concentration at which cytotoxicity occurred ([10]; dog): exceeding 1,000 ppm | concentration causing no cytotoxicity ([10]; dog): less than 300 ppm | CPE, compound only ([11]; 3 ppm): − | CPE, compound only ([11]; 10 ppm): − | CPE, compound only ([11]; 30 ppm): − | CPE, compound only ([11]; 100 ppm): − | CPE, compound only ([11]; 300 ppm): − | CPE, compound only ([11]; 1,000 ppm): CTX | CPE, compound only ([11]; 3,000 ppm): CTX | CPE, compound only ([12]; 3 ppm): − | CPE, compound only ([12]; 10 ppm): − | CPE, compound only ([12]; 30 ppm): − | CPE, compound only ([12]; 100 ppm): − | CPE, compound only ([12]; 300 ppm): − | CPE, compound only ([12]; 1,000 ppm): CTX | CPE, compound only ([12]; 3,000 ppm): CTX
